The source of these data is ChEMBL document CHEMBL3045914, “Response of dry bean to pre-plant incorporated and pre-emergence applications of S-metolachlor and fomesafen” (Crop Prot, 2009).

Common to all, as to assay type: organism-based
Data set [1] concerns Phaseolus vulgaris. Kind of data set: Toxicity in Phaseolus vulgaris (dry bean) assessed as shoot dry weight per row at 280 to 560 g a.i. ha'-1. Conditions: in vivo.
Data set [2] concerns Phaseolus vulgaris. Description: Toxicity in Phaseolus vulgaris (cranberry dry bean) assessed as visible injury on leaves at recommended dose treated at pre-plant incorporated application after 14 days. To be noted: in vivo, other, 336 h.
Data set [3] concerns Phaseolus vulgaris. Kind of data set: Toxicity in Phaseolus vulgaris (white dry bean) assessed as visible injury on leaves at 2 times recommended dose treated at pre-plant incorporated application after 14 days. To be noted: in vivo, other, 336 h.
Data set [4] has as its system Phaseolus vulgaris. Kind of data set: Toxicity in Phaseolus vulgaris (black dry bean) assessed as visible injury on leaves at 2 times recommended dose treated at pre-plant incorporated application after 14 days. Conditions: in vivo, other, 336 h.
Data set [5] has as its system Phaseolus vulgaris. Kind of data set: Toxicity in Phaseolus vulgaris (dry bean) assessed as plant height at 280 to 560 g a.i. ha'-1. To be noted: in vivo.
The test system of data set [6] is Phaseolus vulgaris. Kind of data set: Toxicity in Phaseolus vulgaris (dry bean)assessed as visible injury on leaves at 280 to 560 g a.i. ha'-1 after 14 days. Conditions: in vivo, 336 h.
The subject of data set [7] is Phaseolus vulgaris. Description: Toxicity in Phaseolus vulgaris (kidney dry bean) assessed as visible injury on leaves at 2 times recommended dose treated at pre-emergence application after 14 days. To be noted: in vivo, other, 336 h.
Data set [8] relates to Phaseolus vulgaris. Description: Toxicity in Phaseolus vulgaris (white dry bean) assessed as visible injury on leaves at recommended dose treated at pre-emergence application after 14 days. To be noted: in vivo, other, 336 h.
Data set [9] relates to Phaseolus vulgaris. Kind of data set: Toxicity in Phaseolus vulgaris (white dry bean) assessed as visible injury on leaves at 2 times recommended dose treated at pre-emergence application after 14 days. Conditions: in vivo, other, 336 h.
Data set [10] relates to Phaseolus vulgaris. Kind of data set: Toxicity in Phaseolus vulgaris (kidney dry bean) assessed as visible injury on leaves at 2 times recommended dose treated at pre-plant incorporated application after 14 days. Conditions: in vivo, other, 336 h.
Data set [11] deals with Phaseolus vulgaris. Description: Toxicity in Phaseolus vulgaris (black dry bean) assessed as visible injury on leaves at recommended dose treated at pre-emergence application after 14 days. Conditions: in vivo, other, 336 h.
The subject of data set [12] is Phaseolus vulgaris. Description: Toxicity in Phaseolus vulgaris (cranberry dry bean) assessed as visible injury on leaves at 2 times recommended dose treated at pre-plant incorporated application after 14 days. To be noted: in vivo, other, 336 h.
Data set [13] relates to Phaseolus vulgaris. Kind of data set: Toxicity in Phaseolus vulgaris (kidney dry bean) assessed as visible injury on leaves at recommended dose treated at pre-plant incorporated application after 14 days. Conditions: in vivo, other, 336 h.
The subject of data set [14] is Phaseolus vulgaris. Description: Toxicity in Phaseolus vulgaris (black dry bean) assessed as visible injury on leaves at recommended dose treated at pre-plant incorporated application after 14 days. To be noted: in vivo, other, 336 h.
The test system of data set [15] is Phaseolus vulgaris. Kind of data set: Toxicity in Phaseolus vulgaris (kidney dry bean) assessed as visible injury on leaves at recommended dose treated at pre-emergence application after 14 days. To be noted: in vivo, other, 336 h.
Data set [16] relates to Phaseolus vulgaris. Kind of data set: Toxicity in Phaseolus vulgaris (cranberry dry bean) assessed as visible injury on leaves at 2 times recommended dose treated at pre-emergence application after 14 days. Conditions: in vivo, other, 336 h.
Data set [17] relates to Phaseolus vulgaris. Description: Toxicity in Phaseolus vulgaris (dry bean) assessed as yield at 280 to 560 g a.i. ha'-1. Conditions: in vivo.
The subject of data set [18] is Phaseolus vulgaris. Description: Toxicity in Phaseolus vulgaris (dry bean) assessed as visible injury on leaves at 280 to 560 g a.i. ha'-1 after 28 days. To be noted: in vivo, 672 h.
The test system of data set [19] is Phaseolus vulgaris. Kind of data set: Toxicity in Phaseolus vulgaris (black dry bean) assessed as visible injury on leaves at 2 times recommended dose treated at pre-emergence application after 14 days. To be noted: in vivo, other, 336 h.
The test system of data set [20] is Phaseolus vulgaris. Description: Toxicity in Phaseolus vulgaris (white dry bean) assessed as visible injury on leaves at recommended dose treated at pre-plant incorporated application after 14 days. To be noted: in vivo, other, 336 h.
The test system of data set [21] is Phaseolus vulgaris. Description: Toxicity in Phaseolus vulgaris (dry bean)assessed as visible injury on leaves at 280 to 560 g a.i. ha'-1 after 7 days. Conditions: in vivo, 168 h.
The subject of data set [22] is Phaseolus vulgaris. Kind of data set: Toxicity in Phaseolus vulgaris (cranberry dry bean) assessed as visible injury on leaves at recommended dose treated at pre-emergence application after 14 days. Conditions: in vivo, other, 336 h.
Data set [23] relates to Phaseolus vulgaris. Kind of data set: Toxicity in Phaseolus vulgaris (dry bean) assessed as shoot dry weight per row at 1373 to 2746 g a.i. ha'-1. To be noted: in vivo.
Data set [24] has as its system Phaseolus vulgaris. Kind of data set: Toxicity in Phaseolus vulgaris (dry bean) assessed as visible injury on leaves at 1373 to 2746 g a.i. ha'-1 after 28 days. Conditions: in vivo, 672 h.
Data set [25] concerns Phaseolus vulgaris. Kind of data set: Toxicity in Phaseolus vulgaris (dry bean) assessed as visible injury on leaves at 1373 to 2746 g a.i. ha'-1 after 7 days. To be noted: in vivo, 168 h.
Data set [26] deals with Phaseolus vulgaris. Kind of data set: Toxicity in Phaseolus vulgaris (dry bean) assessed as visible injury on leaves at 1373 to 2746 g a.i. ha'-1 after 14 days. To be noted: in vivo, 336 h.
Data set [27] deals with Phaseolus vulgaris. Kind of data set: Toxicity in Phaseolus vulgaris (dry bean) assessed as yield at 1373 to 2746 g a.i. ha'-1. To be noted: in vivo.
In data set [28] the test system is Phaseolus vulgaris. Kind of data set: Toxicity in Phaseolus vulgaris (dry bean) assessed as plant height at 1373 to 2746 g a.i. ha'-1. To be noted: in vivo.

As for `CS(=O)(=O)NC(=O)c1cc(Oc2ccc(C(F)(F)F)cc2Cl)ccc1[N+](=O)[O-]` [FOMESAFEN], the Activity was determined as 40 g in the data set on Phaseolus vulgaris [1]; 0.1% with Phaseolus vulgaris [2]; 0.2% in the data set with Phaseolus vulgaris [3]; 0.5% in the data set with Phaseolus vulgaris [4]; 49 cm with Phaseolus vulgaris [5]; 0.2% with Phaseolus vulgaris [6]. Further, the Activity in the data set on Phaseolus vulgaris [7] was found to be 0.2%; in the data set with Phaseolus vulgaris [8], 0.1%; in the data set with Phaseolus vulgaris [9], 0.4%; with Phaseolus vulgaris [10], 0.2%; in the data set on Phaseolus vulgaris [11], 1%; with Phaseolus vulgaris [12], 0%. Further, the Activity worked out at 0.3% in the data set with Phaseolus vulgaris [13]; 0.8% with Phaseolus vulgaris [14]; 0% with Phaseolus vulgaris [15]; 0% with Phaseolus vulgaris [16]; 0% in the data set with Phaseolus vulgaris [18]; 1.2% with Phaseolus vulgaris [19]. For the same compound, the values for the Activity in the data set on Phaseolus vulgaris [20], in the data set with Phaseolus vulgaris [21] and with Phaseolus vulgaris [22] were 0.5%, 0.2% and 0%, respectively. Besides, in the data set with Phaseolus vulgaris [17], the Crop_yield is 2.4 tons/ha.

On to `CCc1cccc(C)c1N(C(=O)CCl)[C@@H](C)COC` [S-METOLACHLOR], for which the Activity in the data set with Phaseolus vulgaris [2] is 0.1%; in the data set with Phaseolus vulgaris [3], 1.6%; in the data set with Phaseolus vulgaris [4], 0.7%; in the data set on Phaseolus vulgaris [7], 0.1%; in the data set on Phaseolus vulgaris [8] it was 4.2%; in the data set with Phaseolus vulgaris [23] it was 39 g. Also, the Activity was determined as 0.2% with Phaseolus vulgaris [24]; 6.6% in the data set with Phaseolus vulgaris [9]; 0.7% in the data set on Phaseolus vulgaris [10]; 0.7% in the data set on Phaseolus vulgaris [25]; 3.4% with Phaseolus vulgaris [11]; 0.2% with Phaseolus vulgaris [12]. Further, the Activity with Phaseolus vulgaris [13] came out at 0.1%; in the data set on Phaseolus vulgaris [14], 0.9%; in the data set with Phaseolus vulgaris [15], 0%; in the data set on Phaseolus vulgaris [16] it was 0.1%; in the data set with Phaseolus vulgaris [26], 1%; in the data set on Phaseolus vulgaris [19] it was 5.5%. The figures for the Activity in the data set with Phaseolus vulgaris [28], in the data set on Phaseolus vulgaris [20] and with Phaseolus vulgaris [22] were 49 cm, 0.5% and 0%, respectively. In the data set on Phaseolus vulgaris [27], the Crop_yield worked out at 2.4 tons/ha.
